Here are results for ten compounds from paper PMC13107341, “Quinoline/thiazole compounds as selective acetylcholinesterase inhibitors: synthesis and biological assessment” (RSC Medicinal Chemistry, 2026).

One data set addresses BChE (Homo sapiens, UniProt P06276). The data set is described as follows: Anticholinesterase enzyme activity, modified Ellman method (BChE). In kind it is biochemical. On the procedure: Anticholinesterase enzyme activity studies were conducted to evaluate the inhibitory potential of the synthesized compounds (Table 2). Upon analysis of the results, compounds 3h and 3i stood out due to their notable IC50 values.
(§1) The anticholinesterase enzyme activities of the compounds were investigated using the modified Ellman method. The details of this method have been presented in detail in our previous studies.[25–27]
A general note: In Ellman's method for cholinesterases, released thiocholine reacts with DTNB.

Another data set concerns the target AChE (Homo sapiens, UniProt P22303). The data set is described as follows: Anticholinesterase enzyme activity, modified Ellman method (AChE). The class given is biochemical. On the procedure:
Anticholinesterase enzyme activity studies were conducted to evaluate the inhibitory potential of the synthesized compounds (Table 2).
as §1

Another data set is described as follows: MTT cytotoxicity assay. The note with it: mouse. On the procedure: Both the activity of a compound and its lack of cytotoxicity are criteria that determine whether it can be a potential drug candidate. To this end, the cytotoxic potential of the compounds was investigated on healthy fibroblast cells.
To spectroscopically determine the effects of the synthesized compounds on cell viability, MTT analysis was performed. This method is based on the fact that metabolically active living cells reduce the colorless MTT (3-(4,5-dimethylthiazol-2-yl)-2,5-diphenyltetrazolium) salt, converting it into purple formazan crystals. In the analysis, healthy NIH3T3 cell lines were seeded into 96-well plates at a cell density of […] and incubated with the compounds for 24 hours.[28–33]
On the technique in general: Tetrazolium dyes change colour on reduction, which living cells bring about.

BChE, sequence (P06276 29-602, species assumed): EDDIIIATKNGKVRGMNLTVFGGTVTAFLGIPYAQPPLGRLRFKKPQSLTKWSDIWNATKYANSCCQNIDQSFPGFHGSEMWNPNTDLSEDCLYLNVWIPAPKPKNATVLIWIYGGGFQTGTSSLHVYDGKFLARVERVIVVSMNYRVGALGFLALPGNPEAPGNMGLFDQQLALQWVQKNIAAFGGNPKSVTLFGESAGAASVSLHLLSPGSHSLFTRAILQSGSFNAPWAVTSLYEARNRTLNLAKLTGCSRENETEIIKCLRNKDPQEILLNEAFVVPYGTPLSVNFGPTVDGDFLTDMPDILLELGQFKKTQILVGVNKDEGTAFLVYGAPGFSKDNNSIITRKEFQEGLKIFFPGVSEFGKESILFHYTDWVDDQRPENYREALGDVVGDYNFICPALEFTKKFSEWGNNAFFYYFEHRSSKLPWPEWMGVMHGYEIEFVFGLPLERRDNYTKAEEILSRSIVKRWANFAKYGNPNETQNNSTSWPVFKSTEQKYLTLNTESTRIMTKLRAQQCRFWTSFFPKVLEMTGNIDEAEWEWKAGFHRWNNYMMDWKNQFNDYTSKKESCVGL
AChE, sequence (P22303 32-614): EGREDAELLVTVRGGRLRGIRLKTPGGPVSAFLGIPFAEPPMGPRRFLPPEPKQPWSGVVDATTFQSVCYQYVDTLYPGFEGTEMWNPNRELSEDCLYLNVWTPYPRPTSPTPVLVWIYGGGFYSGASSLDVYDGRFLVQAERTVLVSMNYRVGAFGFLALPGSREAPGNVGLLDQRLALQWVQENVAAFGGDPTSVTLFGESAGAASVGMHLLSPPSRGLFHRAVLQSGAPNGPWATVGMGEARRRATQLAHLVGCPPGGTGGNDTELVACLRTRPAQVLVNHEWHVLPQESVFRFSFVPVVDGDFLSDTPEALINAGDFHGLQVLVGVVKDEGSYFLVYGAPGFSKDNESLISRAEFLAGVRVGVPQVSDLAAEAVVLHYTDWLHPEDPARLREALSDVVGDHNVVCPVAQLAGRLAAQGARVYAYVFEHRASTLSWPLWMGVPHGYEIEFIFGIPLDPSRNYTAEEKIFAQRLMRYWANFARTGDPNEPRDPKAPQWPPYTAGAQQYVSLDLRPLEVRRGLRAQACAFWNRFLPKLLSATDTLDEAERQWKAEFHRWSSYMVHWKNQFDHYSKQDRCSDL

For orientation: IC50 means the midpoint of a concentration-inhibition curve. Turning to `CCn1c(-c2ccc([N+](=O)[O-])cc2)csc1=NN=Cc1ccnc2ccccc12` [3d, 3-Ethyl-4-(4-nitrophenyl)-2-((quinolin-4-ylmethylene)hydrazineylidene)-2,3-dihydrothiazole], the IC50 on BChE and on AChE was above 10 µM throughout.
Consider `CCn1c(-c2ccc(C)cc2)csc1=NN=Cc1ccnc2ccccc12` [3b, 3-Ethyl-2-((quinolin-4-ylmethylene)hydrazineylidene)-4-(p-tolyl)-2,3-dihydrothiazole], for which the 50% inhibitory concentration (IC50) against BChE and against AChE was above 10 µM each time.
For `CCn1c(-c2ccc(O)c(O)c2)csc1=NN=Cc1ccnc2ccccc12` [3i, 4-(3-Ethyl-2-((quinolin-4-ylmethylene)hydrazineylidene)-2,3-dihydrothiazol-4-yl)benzene-1,2-diol], the IC50 against BChE was above 10 µM; against AChE, 0.027 ± 0.002 µM. The same compound gave an IC50 at 24 h in the data set “MTT cytotoxicity assay” of 19.8 ± 0.627 µM.
With `CCn1c(-c2ccccc2)csc1=NN=Cc1ccnc2ccccc12` [3a, 3-Ethyl-4-phenyl-2-((quinolin-4-ylmethylene)hydrazineylidene)-2,3-dihydrothiazole], the IC50 against BChE and at AChE was above 10 µM throughout.
With `CCn1c(-c2ccc(F)cc2)csc1=NN=Cc1ccnc2ccccc12` [3e, 3-Ethyl-4-(4-fluorophenyl)-2-((quinolin-4-ylmethylene)hydrazineylidene)-2,3-dihydrothiazole], the IC50 at BChE is above 10 µM; against AChE, 1.87 ± 0.678 µM.
Compound `COc1cccc2c1C(=O)c1c(O)c3c(c(O)c1C2=O)C[C@@](O)(C(=O)CO)C[C@@H]3O[C@H]1C[C@H](N)[C@H](O)[C@H](C)O1` [Doxorubicin, reference compound] yielded an IC50 at 24 h in the data set “MTT cytotoxicity assay” above 1000 µM.
For `CCn1c(-c2ccc(Cl)cc2)csc1=NN=Cc1ccnc2ccccc12` [3f, 4-(4-Chlorophenyl)-3-ethyl-2-((quinolin-4-ylmethylene)hydrazineylidene)-2,3-dihydrothiazole], the IC50 against BChE is above 10 µM; on AChE, 4.75 ± 0.098 µM.
On to `CCn1c(-c2ccc(C#N)cc2)csc1=NN=Cc1ccnc2ccccc12` [3g, 4-(3-Ethyl-2-((quinolin-4-ylmethylene)hydrazineylidene)-2,3-dihydrothiazol-4-yl)benzonitrile], for which the IC50 at BChE is above 10 µM; on AChE, 9.96 ± 0.208 µM.
For `CCn1c(-c2ccc(OC)cc2)csc1=NN=Cc1ccnc2ccccc12` [3c, 3-Ethyl-4-(4-methoxyphenyl)-2-((quinolin-4-ylmethylene)hydrazineylidene)-2,3-dihydrothiazole] the same measures were above 10 µM and 3.68 ± 0.109 µM.
Regarding `CCn1c(-c2ccc(Cl)c(Cl)c2)csc1=NN=Cc1ccnc2ccccc12` [3h, 4-(3,4-Dichlorophenyl)-3-ethyl-2-((quinolin-4-ylmethylene)hydrazineylidene)-2,3-dihydrothiazole], the IC50 is above 10 µM against BChE and 0.107 ± 0.07 µM against AChE. In addition, the half-inhibitory concentration (IC50) at 24 h in “MTT cytotoxicity assay” was 36.1 ± 0.968 µM.
